# From patent publication US7504403B2, “Substituted heterocyclic compounds and methods of use” (Amgen Inc., priority 2004, dated 2009)
# Tested on: LPS induced TNF release
# Experiment: Lipopolysaccharide-Activated THP1 Cell TNF Production Assay
# Type: cell-based
# Settings: Homo sapiens, THP-1
# Procedure: Lipopolysaccharide-Activated THP1 Cell TNF Production Assay
# THP1 cells are resuspended in fresh THP1 media (RPMI 1640, 10% heat-inactivated FBS, 1×PGS, 1×NEAA, plus 30 μM βME) at a concentration of 1E6/mL. One hundred microliters of cells per well are plated in a polystyrene 96-well tissue culture. One microgram per mL of bacterial LPS is prepared in THP1 media and is transferred to the wells. Test compounds are dissolved in 100% DMSO and are serially diluted 3 fold in a polypropylene 96-well microtiter plate (drug plate). HI control and LO control wells contain only DMSO. One microliter of test compound from the drug plate followed by 10 μL of LPS are transferred to the cell plate. The treated cells are induced to synthesize and secrete TNF-α at 37° C. for 3 h. Forty microliters of conditioned media are transferred to a 96-well polypropylene plate containing 110 μL of ECL buffer (50 mM Tris-HCl pH 8.0, 100 mM NaCl, 0.05% Tween 20, 0.05% NaN3 and 1%FBS) supplemented with 0.44 nM MAB610 monoclonal Ab (R&D Systems), 0.34 nM ruthenylated AF210NA polyclonal Ab (R&D Systems) and 44 μg/mL sheep anti-mouse M280 Dynabeads (Dynal). After a 2 h incubation at room temperature with shaking, the reaction is read on the ECL M8 Instrument (IGEN Inc.). A low voltage is applied to the ruthenylated TNF-α immune complexes, which in the presence of TPA (the active component in Origlo), results in a cyclical redox reaction generating light at […]. The amount of secreted TNF-α in the presence of compound compared with that in the presence of DMSO vehicle alone (HI control) is calculated using the formula: % control (POC)=(cpd−average LO)/(average HI−average LO)*100. Data (consisting of POC and inhibitor concentration in μM) is fitted to a 4-parameter equation (y=A+((B−A)/(1+((x/C)^D))), where A is the minimum y (POC) value, B is the maximum y (POC), C is the x (cpd concentration) at the point of inflection and D is the slope factor) using a Levenburg-Marquardt non-linear regression algorithm.
row,IC50 [µM],Compound
1,≤ 20,"C[C@H](Nc1nccc(N2CCCn3c2cc(-c2ccccc2)cc3=O)n1)c1cccc(Br)c1 [Example 81, 1-{2-(S)-[1-(3-Bromo-phenyl)-ethylamino]-pyrimidin-4-yl}-8-phenyl-1,2,3,4-tetrahydro-pyrido[1,2-a]pyrimidin-6-one]"
2,≤ 20,"C[C@H](Nc1nccc(N2CCCn3c2cc(-c2ccccc2)cc3=O)n1)c1cccc(N2CCNCC2)c1 [Example 82, 8-Phenyl-1-{2-(S)-[1-(3-piperazin-1-yl-phenyl) -ethylamino]-pyrimidin-4-yl}-1,2,3,4-tetrahydro-pyrido[1,2-a]pyrimidin-6-one]"
3,≤ 20,"O=c1c([N+](=O)[O-])c(-c2ccccc2)nc2n1CCCN2c1ccnc(NCCc2ccccc2)n1 [Example 15, 3-Nitro-9-(2-phenethylamino-pyrimidin-4-yl)-2-phenyl-6,7,8,9-tetrahydro-pyrimido[1,2-a]pyrimidin-4-one]"
4,≤ 20,"CC(Cc1cccc(CN)c1)Nc1nccc(N2CCCn3c2nc(-c2ccccc2)cc3=O)n1 (stereo not shown) [Example 44, 9-{2-[2-(3-Aminomethyl-phenyl)-1-methyl-ethylamino]-pyrimidin-4-yl}-2-phenyl-6,7,8,9-tetrahydro-pyrimido[1,2-a]pyrimidin-4-one]"
5,≤ 20,"Nc1c(-c2ccccc2)nc2n(c1=O)CCCN2c1ccnc(NCCc2ccccc2)n1 [Example 18, 3-Amino-9-(2-phenethylamino-pyrimidin-4-yl) -2-phenyl-6,7,8,9-tetrahydro-pyrimido[1,2-a]pyrimidin-4-one]"
6,≤ 20,"CC(C)NC(C)c1ccc(CCNc2nccc(N3CCC(=O)N4CC=C(c5ccccc5)N=C43)n2)cc1 (stereo not shown) [Example 62, 1-(2-{2[4-(1-Isopropylamino-ethyl)-phenyl]-ethylamino}-pyrimidin-4-yl)-8-phenyl-1,2,3,6-tetrahydro-pyrimido[1,2-a]pyrimidin-4-one]"
7,≤ 20,"CCOC(=O)CCC1CN(c2ccnc(NCCc3ccccc3)n2)c2nc(-c3ccccc3)cc(=O)n2C1 (stereo not shown) [Example 54, 3-[6-oxo-1-(2-phenethylamino-pyrimidin-4-yl)-8-phenyl-1,3,4,6-tetrahydro-2H-pyrimido[1,2-a]pyrimidin-3-yl]-propionic acid ethyl ester]"
8,≤ 20,"CCc1cccc(-c2cc(=O)n3c(n2)N(c2ccnc(N[C@@H](C)c4ccccc4)n2)CCC3)c1 [Example 12, 2-(3-ethylphenyl)-9-[2-(1(S)-phenyl-ethylamino)-pyrimidin-4-yl]-6,7,8,9-tetrahydro-pyrimido[1,2-a]pyrimidin-4-one]"
9,≤ 20,"C[C@H](Nc1nccc(N2CCCn3c2nc(C(C)(C)C)cc3=O)n1)c1ccccc1 [Example 11, 2-(tert-butyl)-9-[2-(1(S)-phenyl-ethylamino)-pyrimidin-4-yl]-6,7,8,9-tetrahydro-pyrimido[1,2-a]pyrimidin-4-one]"
10,≤ 20,"O=C(NCCC1CN(c2ccnc(NCCc3ccccc3)n2)c2nc(-c3ccccc3)cc(=O)n2C1)OCc1ccccc1 (stereo not shown) [Example 52, {2-[6-Oxo-1-(2-phenethylamino-pyrimidin-4-yl)-8-phenyl-1,3,4,6-tetrahydro-2H-pyrimido[1,2-a]pyrimidin-3-yl]-ethyl}-carbamic acid benzyl ester]"
11,≤ 20,"O=C(O)CCC1CN(c2ccnc(NCCc3ccccc3)n2)c2nc(-c3ccccc3)cc(=O)n2C1 (stereo not shown) [Example 55, 3-[6-Oxo-1-(2-phenethylamino-pyrimidin-4-yl)-8-phenyl-1,3,4,6-tetrahydro-2H-pyrimido[1,2-a]pyrimidin-3-yl]-propionic acid]"
12,≤ 20,"NCCC1CN(c2ccnc(NCCc3ccccc3)n2)c2nc(-c3ccccc3)cc(=O)n2C1 (stereo not shown) [Example 51, 7-(2-Amino-ethyl)-9-(2-phenethylamino-pyrimidin-4-yl)-2-phenyl-6,7,8,9-tetrahydro-pyrimido[1,2-a]pyrimidin-4-one]"
13,≤ 20,"C[C@H](Nc1nccc(N2CCCn3c2nc(-c2ccc(Cl)c(Cl)c2)cc3=O)n1)c1ccccc1 [Example 13, 2-(3,4-dichlorophenyl)-9-[2-(1(S)-phenyl-ethylamino) -pyrimidin-4-yl]-6,7,8,9-tetrahydro-pyrimido[1,2-a]pyrimidin-4-one]"
14,≤ 20,"CC(Cc1cccc(CN)c1)Nc1nccc(N2CCCn3c2cc(-c2ccccc2)cc3=O)n1 (stereo not shown) [Example 84, 1-{2-[2-(3-Aminomethyl-phenyl)-1-methyl-ethylamino]-pyrimidin-4-yl}-8-phenyl-1,2,3,4-tetrahydro-pyrido[1,2-a]pyrimidin-6-one]"
15,≤ 20,"O=c1cc(-c2ccccc2)cc2n1CCCN2c1ccnc(NCCc2ccccc2)n1 [Example 74, 1-(2-Phenethylamino-pyrimidin-4-yl)-8-phenyl-1,2,3,4-tetrahydro-pyrido[1,2-a]pyrimidin-6-one]"
16,≤ 20,"CC(Cc1cccc(CN)c1)Nc1nccc(N2CCCn3c2nc(-c2ccccc2)c(N)c3=O)n1 (stereo not shown) [Example 14, 3-Amino-9-{2-[2-(3-aminomethyl-phenyl)-1-methyl-ethylamino]-pyrimidin-4-yl}-2-phenyl-6,7,8,9-tetrahydro-pyrimido[1,2-a]pyrimidin-4-one]"
